Measured values taken from patent publication US20050080062A1, “Breast cancer treatment regimen” (priority 2003, published 2005).

Test system: primary breast cancer (hormone receptor positive or unknown)
Type: in vivo, postmenopausal women
Method: The study was a phase III randomized double-blind placebo-controlled study of letrozole in postmenopausal women with primary breast cancer completing five years of adjuvant tamoxifen. Patients were allocated to receive either letrozole 2.5 mg or placebo once daily by mouth for five years. Stratification factors at randomization were tumor receptor status (positive, unknown), lymph node status at diagnosis (negative, positive or unknown) and prior adjuvant chemotherapy (yes, no). The primary objective was disease-free survival (DFS). Secondary endpoints included overall survival (OS)(all cause mortality), contralateral breast cancer occurrence, quality of life and long term clinical and laboratory safety with special attention paid to cardiovascular morbidity and mortality and bone fractures. Adverse events were assessed by the NCI Common Toxicity Criteria version 2.0. Quality of life was assessed using the SF-36 and Menopause-Specific Quality of Life questionnaires. Companion studies assessed lipid profiles and changes in bone density.
Premenopausal women who were <50 years at the start of treatment with tamoxifen but who became amenorrheic during the course of adjuvant chemotherapy or during their treatment with tamoxifen and who remained so throughout the ensuing years of tamoxifen treatment and women with LH/FSH levels within post-menopausal limits were also eligible. Other eligibility included: histologically confirmed invasive breast cancer; tumor receptor positive or unknown (ER and/or PgR positive defined as a tumour receptor content of ≧10 fmol/mg protein, or receptor positive by ERICA or PgRICA); tamoxifen discontinued <3 months prior to enrolment; ECOG performance status 0,1 or 2 and a life expectancy of >5 years. […] Ineligibility included: concurrent use of investigational drugs; prior or concurrent malignancy other than skin cancer or carcinoma in situ of the cervix.
Concomitant medications prohibiting enrolment included: systemic hormone replacement therapy or SERMS (selective estrogen receptor modulators). Intermittent use of vaginal estrogens was permitted.
All study participants were randomised. Study medication began within 5 working days of randomisation. Clinical evaluation, routine blood work, toxicity evaluation and mammography (annually only) occurred six monthly in year one and annually thereafter. Serious toxicities and deaths were reported within 24 hours. Treatment was discontinued for: serious intercurrent illness, unacceptable toxicity, disease recurrence and patient request. SF-36 and Menqol questionnaires were completed by a subset of patients at each visit. Fasting lipid samples and bone mineral density evaluations occurred in sub-sets of participants on the bone and lipid companion studies. Recurrence of disease was defined histologically, cytologically or by clinical and/or radiologic suspicion and dated by the first time of detection. Management of recurrent cancer was at the discretion of the treating physician. Patients developing any second malignancy other than non-melanoma skin cancer or carcinoma in-situ of the cervix had to discontinue study therapy.
Interim analyses and other decisions regarding early termination of the study were referred to an independent Data and Safety Monitoring Committee (DSMC) consisting of clinicians, patient representatives and statisticians who reviewed the study twice a year.
Disease free survival, defined as the time from randomization to the time of recurrence of the primary disease (in the breast, chest wall, nodal or metastatic sites) or development of contralateral breast cancer, was the primary endpoint of the study. The sample size calculation assumed a 4 year disease free survival of 88% for patients on the placebo arm and a hazard ratio of 1.28, which represents 2.5% improvement in 4 year disease free survival from 88% to 90.5%. […]

[1] = among 207 events at first analysis

N#Cc1ccc(C(c2ccc(C#N)cc2)n2cncn2)cc1 [letrozole]
hazard ratio of patients on placebo versus those on letrozole for OS (95% confidence interval from 0.85 to 2.17, stratified two sided log-rank p 0.20): 1.36 | hazard ratio of placebo to letrozole for DFS (95% confidence interval from 1.33 to 2.34, stratified two sided log-rank p 0.000077): 1.76 | effect on breast cancer recurrence and new primary tumors (in words) (after five years of treatment with tamoxifen): markedly reduced breast cancer recurrance and new primary tumors | women who developed both contralateral breast cancer and metastatic disease [1]: 2 women | women who developed contralateral breast cancer only [1]: 14 women | women with metastatic disease recurrence only [1]: 59 women | patients coming off study because of progressive disease (at the time of the first analysis): 44 patients | patients coming off study because of toxicity (female, human, in vivo): 115 patients | toxicity profile (in words) (in vivo): very favorable toxicity profile | 4 year disease free survival (DFS) (letrozole 2.5 mg once daily by mouth after five years of adjuvant tamoxifen, first interim analysis, 95% confidence interval from 90% to 95%): 93% | 4 year overall survival (OS) (letrozole 2.5 mg once daily, first interim analysis, 95% confidence interval from 94% to 98%): 96% | patients who had died at the time of data cut-off (of 72 deaths in total, 2593 randomized to letrozole): 30 patients
